{"source": "ChEMBL document CHEMBL4507292", "about": "(2021)", "key": {"[1]": {"molecular_target": "Gamma-aminobutyric acid type B receptor subunit 1 (Homo sapiens) (UniProt Q9UBS5)", "settings": "Rattus norvegicus; Compound concentration 10.0 uM; call rule not given here"}, "D(1B) dopamine receptor": {"molecular_target": "D(1B) dopamine receptor (Homo sapiens, UniProt P21918)", "sequence (P21918 whole entry)": "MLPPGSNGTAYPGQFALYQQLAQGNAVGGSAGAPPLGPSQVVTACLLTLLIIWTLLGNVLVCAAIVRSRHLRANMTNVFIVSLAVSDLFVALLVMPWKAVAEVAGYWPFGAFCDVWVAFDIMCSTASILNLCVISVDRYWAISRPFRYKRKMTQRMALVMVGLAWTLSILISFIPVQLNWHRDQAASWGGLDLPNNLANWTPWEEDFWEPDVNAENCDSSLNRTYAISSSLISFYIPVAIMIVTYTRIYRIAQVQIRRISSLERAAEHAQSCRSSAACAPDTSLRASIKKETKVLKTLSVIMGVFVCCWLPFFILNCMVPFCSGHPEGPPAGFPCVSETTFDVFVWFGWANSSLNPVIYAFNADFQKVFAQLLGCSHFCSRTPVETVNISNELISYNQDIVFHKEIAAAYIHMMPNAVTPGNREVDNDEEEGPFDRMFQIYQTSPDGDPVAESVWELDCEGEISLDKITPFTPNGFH", "experiment": "Dopamine D5 Eurofins-Panlabs radioligand binding assay", "settings": "concentration not given here"}, "[2]": {"molecular_target": "Polyunsaturated fatty acid 5-lipoxygenase (Homo sapiens) (UniProt P09917)", "experiment": "Lipoxygenase 5-LO Eurofins-Panlabs enzyme assay", "settings": "Compound concentration 10.0 uM"}, "[3]": {"molecular_target": "Prostaglandin G/H synthase 1 (Homo sapiens) (UniProt P23219)", "experiment": "Inhibition of Cyclooxygenase COX-1 at compound concentration of 10.0 uM in the Eurofins-Panlabs enzyme assay (Eurofins_assay_116020)", "settings": "Compound concentration 10.0 uM"}, "[4]": {"molecular_target": "T1, Alpha-2A adrenergic receptor (Homo sapiens) (UniProt P08913)", "T1 sequence (whole entry)": "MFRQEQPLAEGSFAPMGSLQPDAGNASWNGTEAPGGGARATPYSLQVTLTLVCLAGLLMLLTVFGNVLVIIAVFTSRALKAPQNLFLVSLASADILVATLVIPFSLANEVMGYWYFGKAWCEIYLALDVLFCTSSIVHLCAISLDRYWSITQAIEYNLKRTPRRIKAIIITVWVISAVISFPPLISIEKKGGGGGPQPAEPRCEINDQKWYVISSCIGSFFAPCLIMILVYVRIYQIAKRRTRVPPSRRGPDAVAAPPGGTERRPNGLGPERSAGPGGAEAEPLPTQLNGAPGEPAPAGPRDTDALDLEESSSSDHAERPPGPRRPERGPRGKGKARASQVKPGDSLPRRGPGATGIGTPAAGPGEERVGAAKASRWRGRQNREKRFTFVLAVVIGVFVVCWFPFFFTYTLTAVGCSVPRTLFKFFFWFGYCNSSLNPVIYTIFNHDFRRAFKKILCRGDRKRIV", "experiment": "(§1) Adrenergic alpha2A Eurofins-Panlabs radioligand binding assay", "parameters": "ligand concentration 1 nM, non-specific ligand with concentration 10 µM WB-4101, incubation time 60 min, incubation temperature 25 °C"}, "[5]": {"molecular_target": "Alpha-2A adrenergic receptor (Homo sapiens, UniProt P08913)", "experiment": "as §1", "parameters": "ligand concentration 1 nM, non-specific ligand with concentration 10 µM WB-4101, incubation time 60 min, incubation temperature 25 °C"}, "[6]": {"molecular_target": "Inositol 1,4,5-trisphosphate-gated calcium channel ITPR1 (Homo sapiens) (UniProt Q14643)", "experiment": "Inositol Trisphosphate IP3 Eurofins-Panlabs radioligand binding assay", "settings": "Rattus norvegicus; Compound concentration 10.0 uM"}, "[7]": {"molecular_target": "Beta-3 adrenergic receptor (Homo sapiens, UniProt P13945)", "sequence (P13945 whole entry)": "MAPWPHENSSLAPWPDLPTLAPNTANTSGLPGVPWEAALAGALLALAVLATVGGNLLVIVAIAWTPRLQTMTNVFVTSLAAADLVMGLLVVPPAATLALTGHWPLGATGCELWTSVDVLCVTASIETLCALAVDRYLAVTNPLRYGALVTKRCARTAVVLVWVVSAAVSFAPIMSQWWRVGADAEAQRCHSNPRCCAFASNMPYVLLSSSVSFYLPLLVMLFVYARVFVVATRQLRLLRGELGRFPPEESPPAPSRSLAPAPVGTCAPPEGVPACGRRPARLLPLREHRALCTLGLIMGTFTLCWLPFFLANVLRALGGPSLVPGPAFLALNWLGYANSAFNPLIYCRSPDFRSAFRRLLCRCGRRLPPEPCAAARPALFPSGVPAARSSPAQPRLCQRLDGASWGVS", "experiment": "Inhibition of Adrenergic beta3 at compound concentration of 10.0 uM in the Eurofins-Panlabs radioligand binding assay (Eurofins_assay_204200)", "parameters": "ligand concentration 0.5 nM, non-specific ligand with concentration 1000 uM Alprenolol, incubation time 90 min, incubation temperature 25 C"}, "[8]": {"molecular_target": "Polyunsaturated fatty acid lipoxygenase ALOX12 (Homo sapiens) (UniProt P18054)", "experiment": "Lipoxygenase 12-LO Eurofins-Panlabs enzyme assay", "parameters": "substrate with concentration", "settings": "Compound concentration 10.0 uM"}, "[9]": {"molecular_target": "T2, Sodium-dependent noradrenaline transporter (Homo sapiens, UniProt P23975)", "T2 sequence (P23975 whole entry)": "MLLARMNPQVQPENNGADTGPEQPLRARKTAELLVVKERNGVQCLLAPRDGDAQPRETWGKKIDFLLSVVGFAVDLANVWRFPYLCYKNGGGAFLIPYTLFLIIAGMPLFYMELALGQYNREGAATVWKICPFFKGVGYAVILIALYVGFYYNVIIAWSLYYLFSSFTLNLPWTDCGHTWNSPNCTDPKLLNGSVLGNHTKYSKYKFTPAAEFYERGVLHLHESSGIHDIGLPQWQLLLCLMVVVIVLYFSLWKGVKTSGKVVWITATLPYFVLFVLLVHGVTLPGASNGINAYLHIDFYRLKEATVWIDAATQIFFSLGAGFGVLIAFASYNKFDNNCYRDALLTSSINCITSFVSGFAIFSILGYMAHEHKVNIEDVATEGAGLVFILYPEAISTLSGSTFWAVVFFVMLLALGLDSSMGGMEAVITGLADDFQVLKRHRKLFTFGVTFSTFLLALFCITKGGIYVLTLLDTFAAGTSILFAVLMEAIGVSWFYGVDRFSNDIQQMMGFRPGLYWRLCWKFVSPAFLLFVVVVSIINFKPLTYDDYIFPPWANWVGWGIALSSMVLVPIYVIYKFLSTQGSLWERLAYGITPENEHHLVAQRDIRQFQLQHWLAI"}, "[10]": {"molecular_target": "cGMP-specific 3',5'-cyclic phosphodiesterase (Homo sapiens, UniProt O76074)"}, "Rattus norvegicus [11]": {"species_on_record": "Rattus norvegicus", "settings": "Compound concentration 10.0 uM"}, "[12]": {"molecular_target": "Glutamate receptor 2 (Homo sapiens) (UniProt P42262)", "sequence (P42262 whole entry)": "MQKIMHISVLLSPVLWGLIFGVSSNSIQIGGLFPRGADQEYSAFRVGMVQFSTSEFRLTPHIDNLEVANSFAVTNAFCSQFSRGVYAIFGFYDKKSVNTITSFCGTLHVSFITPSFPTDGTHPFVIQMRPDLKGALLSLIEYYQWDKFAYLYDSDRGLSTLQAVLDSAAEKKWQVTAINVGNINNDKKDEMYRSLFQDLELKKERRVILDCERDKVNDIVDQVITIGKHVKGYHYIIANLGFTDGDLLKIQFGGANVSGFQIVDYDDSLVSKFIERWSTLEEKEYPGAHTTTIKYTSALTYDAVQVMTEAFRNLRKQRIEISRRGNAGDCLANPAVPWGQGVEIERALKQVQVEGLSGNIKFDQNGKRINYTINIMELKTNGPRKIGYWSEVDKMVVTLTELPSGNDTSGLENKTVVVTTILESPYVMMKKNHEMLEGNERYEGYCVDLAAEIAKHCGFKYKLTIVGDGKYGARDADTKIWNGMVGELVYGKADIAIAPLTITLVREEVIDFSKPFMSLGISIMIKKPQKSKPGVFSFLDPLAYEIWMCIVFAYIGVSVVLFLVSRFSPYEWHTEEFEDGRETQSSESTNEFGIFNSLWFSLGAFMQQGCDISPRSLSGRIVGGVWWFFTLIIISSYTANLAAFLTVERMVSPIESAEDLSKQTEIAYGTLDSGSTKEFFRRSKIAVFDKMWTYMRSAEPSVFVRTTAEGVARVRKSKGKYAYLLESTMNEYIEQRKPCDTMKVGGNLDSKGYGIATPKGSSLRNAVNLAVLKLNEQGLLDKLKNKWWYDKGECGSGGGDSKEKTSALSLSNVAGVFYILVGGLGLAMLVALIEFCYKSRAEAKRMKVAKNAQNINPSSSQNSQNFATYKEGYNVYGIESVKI", "settings": "Rattus norvegicus; Compound concentration 10.0 uM"}, "[13]": {"experiment": "Inhibition of Atrial Natriuretic Factor (ANF) at 10 µM in the Eurofins-Panlabs radioligand binding assay (Eurofins_assay_211000)", "settings": "Cavia porcellus"}, "Homo sapiens [14]": {"species_on_record": "Homo sapiens", "experiment": "(§2) Prostanoid, Thromboxane A2 (TP) Eurofins-Panlabs radioligand binding assay", "parameters": "ligand concentration 5 nM, non-specific ligand with concentration 1 µM SQ-29548, incubation time 30 min, incubation temperature 25 °C"}, "[15]": {"experiment": "as §2", "parameters": "species or system Homo sapiens; ligand concentration 5 nM, non-specific ligand with concentration 1 µM SQ-29548, incubation time 30 min, incubation temperature 25 °C"}, "[16]": {"molecular_target": "Tyrosine 3-monooxygenase (Homo sapiens) (UniProt P07101)", "experiment": "Tyrosine Hydroxylase Eurofins-Panlabs enzyme assay", "parameters": "substrate with concentration", "settings": "Rattus norvegicus; Compound concentration 10.0 uM"}, "[17]": {"molecular_target": "Vasopressin V1a receptor (Homo sapiens) (UniProt P37288)", "sequence (P37288 whole entry, looked up)": "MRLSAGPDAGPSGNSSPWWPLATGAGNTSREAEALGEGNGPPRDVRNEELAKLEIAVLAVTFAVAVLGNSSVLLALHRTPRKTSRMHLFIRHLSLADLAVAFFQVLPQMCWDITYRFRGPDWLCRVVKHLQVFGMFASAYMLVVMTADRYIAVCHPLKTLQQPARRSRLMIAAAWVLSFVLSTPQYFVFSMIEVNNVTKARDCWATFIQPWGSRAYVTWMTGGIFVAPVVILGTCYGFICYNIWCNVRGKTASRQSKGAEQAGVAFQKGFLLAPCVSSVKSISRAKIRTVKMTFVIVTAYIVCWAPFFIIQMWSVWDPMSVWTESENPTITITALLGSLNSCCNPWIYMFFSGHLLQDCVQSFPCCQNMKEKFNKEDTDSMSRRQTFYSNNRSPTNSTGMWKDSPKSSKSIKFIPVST", "settings": "Compound concentration 10.0 uM"}, "[18]": {"molecular_target": "Melanocortin receptor 3 (Homo sapiens) (UniProt P41968)", "experiment": "Inhibition of Melanocortin MC3 at 10 µM in the Eurofins-Panlabs radioligand binding assay (Eurofins_assay_251300)", "parameters": "ligand concentration 0.035 nM", "settings": "Compound concentration 10.0 uM"}, "[19]": {"molecular_target": "B1 bradykinin receptor (Homo sapiens) (UniProt P46663)", "experiment": "Bradykinin B1 Eurofins-Panlabs radioligand binding assay", "settings": "Compound concentration 10.0 uM"}, "[20]": {"molecular_target": "Vasopressin V2 receptor (Homo sapiens) (UniProt P30518)", "experiment": "Vasopressin V2 Eurofins-Panlabs radioligand binding assay", "parameters": "ligand concentration 0.5 nM", "settings": "Compound concentration 10.0 uM"}, "[21]": {"molecular_target": "Adenosine receptor A1 (Homo sapiens) (UniProt P30542)", "sequence (P30542 whole entry)": "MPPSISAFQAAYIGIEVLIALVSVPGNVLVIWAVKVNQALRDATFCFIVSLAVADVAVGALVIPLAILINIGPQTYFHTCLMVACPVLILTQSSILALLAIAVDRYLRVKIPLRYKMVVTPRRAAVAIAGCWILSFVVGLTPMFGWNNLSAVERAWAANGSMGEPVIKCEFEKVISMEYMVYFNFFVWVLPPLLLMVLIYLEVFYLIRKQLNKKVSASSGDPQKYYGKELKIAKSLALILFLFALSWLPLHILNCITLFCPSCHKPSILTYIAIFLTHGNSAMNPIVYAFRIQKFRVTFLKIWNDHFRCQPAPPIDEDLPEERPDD", "settings": "Compound concentration 10.0 uM"}, "[22]": {"molecular_target": "Tyrosine-protein phosphatase non-receptor type 2 (Homo sapiens) (UniProt P17706)", "sequence (P17706 whole entry)": "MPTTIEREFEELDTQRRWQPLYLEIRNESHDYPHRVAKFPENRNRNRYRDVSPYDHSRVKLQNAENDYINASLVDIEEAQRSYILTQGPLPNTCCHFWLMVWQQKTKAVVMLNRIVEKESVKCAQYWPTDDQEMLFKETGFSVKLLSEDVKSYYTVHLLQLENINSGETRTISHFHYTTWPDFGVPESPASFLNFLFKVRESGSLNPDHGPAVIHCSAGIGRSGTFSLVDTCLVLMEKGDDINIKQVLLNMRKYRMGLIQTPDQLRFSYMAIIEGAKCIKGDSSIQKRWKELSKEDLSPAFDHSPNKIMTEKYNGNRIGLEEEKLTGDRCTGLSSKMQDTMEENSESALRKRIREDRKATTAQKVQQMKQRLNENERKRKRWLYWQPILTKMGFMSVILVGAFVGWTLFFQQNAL", "experiment": "Protein Tyrosine Phosphatase, PTPN2 (TCPTP) Eurofins-Panlabs enzyme assay", "parameters": "substrate with concentration DiFMUP, incubation time 60 min, incubation temperature 37 °C", "settings": "Compound concentration 10.0 uM"}, "[23]": {"molecular_target": "Somatostatin receptor type 5 (Homo sapiens) (UniProt P35346)", "sequence (P35346 whole entry)": "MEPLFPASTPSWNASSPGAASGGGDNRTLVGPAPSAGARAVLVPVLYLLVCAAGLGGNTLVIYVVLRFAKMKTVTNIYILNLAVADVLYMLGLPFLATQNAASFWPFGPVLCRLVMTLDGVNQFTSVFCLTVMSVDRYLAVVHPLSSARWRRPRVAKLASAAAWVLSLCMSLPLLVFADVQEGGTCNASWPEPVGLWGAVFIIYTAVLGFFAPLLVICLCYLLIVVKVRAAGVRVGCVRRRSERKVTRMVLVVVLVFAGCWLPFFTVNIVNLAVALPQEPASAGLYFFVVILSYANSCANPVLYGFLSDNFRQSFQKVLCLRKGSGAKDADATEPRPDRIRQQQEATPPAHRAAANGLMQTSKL", "experiment": "Somatostatin sst5 Eurofins-Panlabs radioligand binding assay", "settings": "Compound concentration 10.0 uM"}, "[24]": {"molecular_target": "Neuropeptide Y receptor type 2 (Homo sapiens) (UniProt P49146)", "sequence (P49146 whole entry)": "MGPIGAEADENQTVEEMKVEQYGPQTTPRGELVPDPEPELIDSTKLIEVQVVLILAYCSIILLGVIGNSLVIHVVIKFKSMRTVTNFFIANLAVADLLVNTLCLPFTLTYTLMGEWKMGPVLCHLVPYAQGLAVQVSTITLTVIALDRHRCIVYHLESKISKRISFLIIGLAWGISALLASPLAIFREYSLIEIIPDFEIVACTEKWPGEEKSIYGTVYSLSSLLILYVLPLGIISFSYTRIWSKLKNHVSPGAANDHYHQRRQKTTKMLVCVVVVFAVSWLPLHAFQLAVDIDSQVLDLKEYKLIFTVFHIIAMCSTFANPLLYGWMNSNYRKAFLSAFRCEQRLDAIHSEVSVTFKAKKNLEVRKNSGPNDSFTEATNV", "experiment": "Inhibition of Neuropeptide Y Y2 at 10 µM in the Eurofins-Panlabs radioligand binding assay (Eurofins_assay_257110)", "settings": "Compound concentration 10.0 uM"}, "[25]": {"molecular_target": "Histamine H1 receptor (Homo sapiens) (UniProt P35367)", "settings": "Compound concentration 10.0 uM"}, "[26]": {"molecular_target": "Vasoactive intestinal polypeptide receptor 1 (Homo sapiens) (UniProt P32241)", "experiment": "Inhibition of Vasoactive Intestinal Peptide VIP1 at 10 µM in the Eurofins-Panlabs radioligand binding assay (Eurofins_assay_287010)", "settings": "Compound concentration 10.0 uM"}, "[27]": {"molecular_target": "Sodium-dependent serotonin transporter (Homo sapiens, UniProt P31645)", "experiment": "Transporter, Serotonin (5- Hydroxytryptamine) (SERT) Eurofins-Panlabs radioligand binding assay", "parameters": "ligand concentration 0.15 nM, non-specific ligand with concentration 10 µM Imipramine, incubation time 3 h, incubation temperature 4 °C"}, "[28]": {"molecular_target": "T2, Sodium-dependent noradrenaline transporter", "experiment": "Inhibition of Transporter, Norepinephrine (NET) at compound concentration of 10.0 uM in the Eurofins-Panlabs radioligand binding assay (Eurofins_assay_204410)", "parameters": "ligand concentration 0.2 nM, non-specific ligand with concentration 10 uM Desipramine, incubation time 3 h, incubation temperature 4 C"}, "Homo sapiens [29]": {"species_on_record": "Homo sapiens", "experiment": "Estrogen ERbeta Eurofins-Panlabs radioligand binding assay", "settings": "Compound concentration 10.0 uM"}, "[30]": {"molecular_target": "Synaptic vesicular amine transporter (Homo sapiens) (UniProt Q05940)", "sequence (Q05940 whole entry)": "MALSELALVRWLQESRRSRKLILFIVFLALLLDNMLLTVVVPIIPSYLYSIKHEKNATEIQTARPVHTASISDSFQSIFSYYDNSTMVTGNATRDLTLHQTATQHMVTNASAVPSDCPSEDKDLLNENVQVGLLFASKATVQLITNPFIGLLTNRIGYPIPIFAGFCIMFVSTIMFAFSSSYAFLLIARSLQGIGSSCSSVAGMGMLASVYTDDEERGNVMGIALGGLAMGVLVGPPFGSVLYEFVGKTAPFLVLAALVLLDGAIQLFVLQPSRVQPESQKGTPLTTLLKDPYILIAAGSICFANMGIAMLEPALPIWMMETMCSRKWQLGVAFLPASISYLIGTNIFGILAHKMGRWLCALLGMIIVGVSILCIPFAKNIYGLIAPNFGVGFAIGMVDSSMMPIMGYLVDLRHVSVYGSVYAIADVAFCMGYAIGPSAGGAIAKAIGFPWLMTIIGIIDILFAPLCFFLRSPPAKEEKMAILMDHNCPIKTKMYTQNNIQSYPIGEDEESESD", "settings": "Oryctolagus cuniculus"}, "Rattus norvegicus [31]": {"species_on_record": "Rattus norvegicus", "experiment": "Adrenergic α2, Non-selective Eurofins-Panlabs radioligand binding assay", "format": "protein assay", "settings": "Compound concentration 10.0 uM"}, "[32]": {"molecular_target": "Beta-1 adrenergic receptor (Homo sapiens) (UniProt P08588)", "settings": "Compound concentration 10.0 uM"}}, "data": [{"smiles": "O=C(O)c1cc(-c2ccc(C3CCNCC3)cc2)c2ccc(-c3ccc(C(F)(F)F)cc3)cc2c1", "note": "[PPTN]", "values": [{"measurement": "inhibition", "setting": "[1]", "value": 3, "unit": "%"}, {"measurement": "inhibition", "setting": "D(1B) dopamine receptor", "value": 7, "unit": "%"}, {"measurement": "inhibition", "setting": "[2]", "value": -9, "unit": "%"}, {"measurement": "inhibition", "setting": "[3]", "value": 4, "unit": "%"}, {"measurement": "inhibition", "setting": "[4]; Compound concentration 0.01 uM", "value": 9, "unit": "%"}, {"measurement": "inhibition", "setting": "[4]; Compound concentration 0.1 uM", "value": 13, "unit": "%"}, {"measurement": "inhibition", "setting": "[4]; Compound concentration 1.0 uM", "value": 11, "unit": "%"}, {"measurement": "inhibition", "setting": "[4]; Compound concentration 10.0 uM", "value": 78, "unit": "%"}, {"measurement": "IC50", "setting": "[5]", "value": 4.07, "unit": "µM"}, {"measurement": "Ki", "setting": "[5]", "value": 1.53, "unit": "µM"}, {"measurement": "inhibition", "setting": "[6]", "value": 9, "unit": "%"}, {"measurement": "IC50", "setting": "[7]", "value": 9.61, "unit": "µM"}, {"measurement": "Ki", "setting": "[7]", "value": 7.2, "unit": "µM"}, {"measurement": "inhibition", "setting": "[8]", "value": 30, "unit": "%"}, {"measurement": "inhibition", "setting": "[9]; Compound concentration 0.01 uM", "value": 6, "unit": "%"}, {"measurement": "inhibition", "setting": "[9]; Compound concentration 0.1 uM", "value": -2, "unit": "%"}, {"measurement": "inhibition", "setting": "[9]; Compound concentration 1.0 uM", "value": 20, "unit": "%"}, {"measurement": "inhibition", "setting": "[9]; Compound concentration 10.0 uM", "value": 78, "unit": "%"}, {"measurement": "IC50", "setting": "[10]", "value": 38.2, "unit": "µM"}, {"measurement": "inhibition", "setting": "Rattus norvegicus [11]", "value": 3, "unit": "%"}, {"measurement": "inhibition", "setting": "[12]", "value": -2, "unit": "%"}, {"measurement": "inhibition at 10 µM", "setting": "[13]", "value": "-1% (not active)"}, {"measurement": "inhibition", "setting": "Homo sapiens [14]; Compound concentration 0.01 uM", "value": 14, "unit": "%"}, {"measurement": "inhibition", "setting": "Homo sapiens [14]; Compound concentration 0.1 uM", "value": -5, "unit": "%"}, {"measurement": "inhibition", "setting": "Homo sapiens [14]; Compound concentration 1.0 uM", "value": 9, "unit": "%"}, {"measurement": "inhibition", "setting": "Homo sapiens [14]; Compound concentration 10.0 uM", "value": 51, "unit": "%"}, {"measurement": "IC50", "setting": "[15]", "value": 9.5, "unit": "µM"}, {"measurement": "Ki", "setting": "[15]", "value": 6.2, "unit": "µM"}, {"measurement": "inhibition", "setting": "[16]", "value": -3, "unit": "%"}, {"measurement": "inhibition", "setting": "[17]", "value": 3, "unit": "%"}, {"measurement": "inhibition", "setting": "[18]", "value": 34, "unit": "%"}, {"measurement": "inhibition", "setting": "[19]", "value": 12, "unit": "%"}, {"measurement": "inhibition", "setting": "[20]", "value": 28, "unit": "%"}, {"measurement": "inhibition", "setting": "[21]", "value": -2, "unit": "%"}, {"measurement": "inhibition", "setting": "[22]", "value": -4, "unit": "%"}, {"measurement": "inhibition", "setting": "[23]", "value": 20, "unit": "%"}, {"measurement": "inhibition", "setting": "[24]", "value": -1, "unit": "%"}, {"measurement": "inhibition", "setting": "[25]", "value": -1, "unit": "%"}, {"measurement": "inhibition", "setting": "[26]", "value": 3, "unit": "%"}, {"measurement": "IC50", "setting": "[27]", "value": 9.47, "unit": "µM"}, {"measurement": "Ki", "setting": "[27]", "value": 5.03, "unit": "µM"}, {"measurement": "inhibition", "setting": "[27]; Compound concentration 0.01 uM", "value": -7, "unit": "%"}, {"measurement": "inhibition", "setting": "[27]; Compound concentration 0.1 uM", "value": -9, "unit": "%"}, {"measurement": "inhibition", "setting": "[27]; Compound concentration 1.0 uM", "value": -6, "unit": "%"}, {"measurement": "inhibition", "setting": "[27]; Compound concentration 10.0 uM", "value": 58, "unit": "%"}, {"measurement": "IC50", "setting": "[28]", "value": 3.3, "unit": "µM"}, {"measurement": "Ki", "setting": "[28]", "value": 3.27, "unit": "µM"}, {"measurement": "inhibition", "setting": "Homo sapiens [29]", "value": 1, "unit": "%"}, {"measurement": "inhibition", "setting": "[30]; Compound concentration 0.01 uM", "value": -8, "unit": "%"}, {"measurement": "inhibition", "setting": "[30]; Compound concentration 0.1 uM", "value": 8, "unit": "%"}, {"measurement": "inhibition", "setting": "[30]; Compound concentration 1.0 uM", "value": 41, "unit": "%"}, {"measurement": "inhibition", "setting": "[30]; Compound concentration 10.0 uM", "value": 59, "unit": "%"}, {"measurement": "inhibition", "setting": "Rattus norvegicus [31]", "value": -1, "unit": "%"}, {"measurement": "inhibition", "setting": "[32]", "value": 3, "unit": "%"}]}]}
